Measurements as given in patent US20230120597A1, “CO-AGONISTS AT GLP-1 AND GIP RECEPTORS SUITABLE FOR ORAL DELIVERY” (Novo Nordisk A/S, priority 2020, published 2023).
Marks after values point to notes of the source that are not given here. Starred links: 1 amine or outer side, 2 acyl side, 3 side chain; linkers in the order of their positions; H or OH if unused. Non-standard residues stand in square brackets, D forms with d. Residues, ends and D or L forms follow the SMILES beside them. Groups on a side chain read outwards from the residue. *: point of attachment. C18 diacid = O=C(O)CCCCCCCCCCCCCCCCC(=O)*; γGlu = O=C(O)[C@H](CCC(=O)[*:2])N[*:1]; εLys = N[C@@H](CCCCN[*:1])C(=O)[*:2]; Aib = CC(C)(N)C(=O)O

Assay: Pharmacokinetic study in dogs, oral dosing of tablet compositions with SNAC
Format: in vivo, Beagle dogs
Conditions: dog, in vivo, po
Description: The purpose of this example is to determine the half-life and plasma exposure in vivo of the compounds of the present invention after p.o. administration to beagle dogs, i.e. the terminal half-life and concentration of test substance that reaches circulation with time. This is done in a pharmacokinetic (PK) study, where these parameters of the compound in question are determined. By terminal half-life is generally meant the period of time it takes to halve a certain plasma concentration, measured after the initial distribution phase.
The amount of SNAC in the tablet composition was 100-300 mg, the amount of magnesium stearate in the tablet composition was 7.7 mg, and the target amount of each test substance in the tablet composition was 3-4 mg.
Male beagle dogs, 1-7 years of age and weighing 9-17 kg during the study period, were included in the study. The dogs were dosed in a fasting state. The dogs were group housed in pens (12 hours light: 12 hours dark), and fed individually and restrictedly once daily with Royal Canin Medium Adult dog food (Royal Canin Products, China Branch, or Brogaarden A/S, Denmark). The dogs were used for repeated PK studies with a suitable wash-out period between successive dosing. An appropriate acclimatization period was given prior to initiation of the first PK study. All handling, dosing, and blood sampling of the animals were performed by trained and skilled staff. Before the studies, the dogs were fasted overnight and from 0 to 4 hours after dosing. The dogs were restricted to water 1 hour before dosing until 4 hours after dosing, but otherwise had ad libitum access to water during the whole period.
The compositions were administered by a single oral dosing to the dogs in groups of 6-8 dogs. […] The mouth was then closed, and 10 mL of tap water was given by syringe or gavage to facilitate swallowing of the tablet.
One blood sample was drawn before dosing, and additional samples were drawn at predefined time points after dosing for up to 240 hours, such as up to 10 hours, to adequately cover the full plasma concentration-time absorption profile of the test substance. For each blood sample time point, approximately 0.8 mL of whole blood was collected in a 1.5 mL EDTA-coated tube, which was gently turned to mix the sample with EDTA. Blood samples were collected in EDTA buffer (8 mM) and then centrifuged at 4° C. 2000 g for 10 minutes. Plasma was pipetted into Micronic tubes on dry ice, and kept at −20° C. or lower until analysis. Blood samples were taken as appropriate, for example from a venflon in the cephalic vein in the front leg for the first 2 hours and then with syringe from the jugular vein for the rest of the time points. The first few drops were allowed to drain from the venflon to avoid heparin saline from the venflon in the sample.
All blood samples were collected into test tubes containing EDTA for stabilisation and kept on ice until centrifugation. Plasma was separated from whole blood by centrifugation and the plasma was stored at −20° C. or lower until analysis.
The plasma was analysed for test substance using LC-MS (Liquid Chromatography-Mass Spectrometry) as known to the person skilled in the art. […] RP-HPLC separation was achieved using a linear gradient of 1:1 acetonitrile/methanol in 1% aqueous formic acid using either: a Phenomenex Onyx Monolithic C18 column (50×2.0 mm) and a flow rate of 0.8 mL/min at 30° C.; or an Agilent Poroshell 120 SB-C18 column (50×2.1 mm, 2.7 μm) at a flow rate of 0.4 mL/min at 60° C. The mass spectrometer was operated in either positive ionization SIM mode or positive ionization PRM mode.
For each individual animal, a plasma concentration-time profile was analysed by a non-compartmental model in Pharsight Phoenix WinNonLin ver.

SMILES	AUC/Dose
CC[C@H](C)[C@H](NC(=O)[C@H](Cc1ccccc1)NC(=O)[C@H](CCC(=O)O)NC(=O)[C@H](CCCNC(=N)N)NC(=O)[C@H](C)NC(=O)[C@H](C)NC(=O)[C@H](CCC(N)=O)NC(=O)[C@H](CCCCNC(=O)[C@@H](N)CCCCNC(=O)[C@@H](N)CCCCNC(=O)CC[C@H](NC(=O)CCCCCCCCCCCCCCCCC(=O)O)C(=O)O)NC(=O)[C@H](CCC(=O)O)NC(=O)[C@H](CC(C)C)NC(=O)[C@H](CC(C)C)NC(=O)[C@@H](NC(=O)[C@H](CO)NC(=O)[C@H](Cc1ccc(O)cc1)NC(=O)[C@H](CC(=O)O)NC(=O)[C@H](CO)NC(=O)[C@@H](NC(=O)[C@H](Cc1ccccc1)NC(=O)[C@@H](NC(=O)CNC(=O)[C@H](CCC(=O)O)NC(=O)C(C)(C)NC(=O)[C@@H](N)Cc1ccc(O)cc1)[C@@H](C)O)[C@@H](C)O)[C@@H](C)CC)C(=O)N[C@@H](CCC(=O)O)C(=O)N[C@@H](Cc1c[nH]c2ccccc12)C(=O)N[C@@H](CC(C)C)C(=O)N[C@@H](CC(C)C)C(=O)N[C@@H](C)C(=O)NCC(=O)NCC(=O)N1CCC[C@H]1C(=O)N[C@@H](CO)C(=O)N[C@@H](CO)C(=O)NCC(=O)N[C@@H](C)C(=O)N1CCC[C@H]1C(=O)N1CCC[C@H]1C(=O)N1CCC[C@H]1C(=O)N[C@@H](CO)C(=O)O [Compound No. 31] (H-Y[Aib]EGTFTSDYSILLEK([εLys-εLys-γGlu-C18 diacid])QAAREFIEWLLAGGPSSGAPPPS-OH; N-terminus assumed)	17.9** kg*h/L
CC[C@H](C)[C@H](NC(=O)[C@H](Cc1ccccc1)NC(=O)[C@H](CCC(=O)O)NC(=O)[C@H](CCC(=O)O)NC(=O)[C@H](C)NC(=O)[C@H](C)NC(=O)[C@H](CCC(N)=O)NC(=O)[C@H](CCCCNC(=O)[C@@H](N)CCCCNC(=O)[C@@H](N)CCCCNC(=O)CC[C@H](NC(=O)CCCCCCCCCCCCCCCCC(=O)O)C(=O)O)NC(=O)[C@H](CCC(=O)O)NC(=O)[C@H](CC(C)C)NC(=O)[C@H](CC(C)C)NC(=O)[C@@H](NC(=O)[C@H](CO)NC(=O)[C@H](Cc1ccc(O)cc1)NC(=O)[C@H](CC(=O)O)NC(=O)[C@H](CO)NC(=O)[C@@H](NC(=O)[C@H](Cc1ccccc1)NC(=O)[C@@H](NC(=O)CNC(=O)[C@H](CCC(=O)O)NC(=O)C(C)(C)NC(=O)[C@@H](N)Cc1ccc(O)cc1)[C@@H](C)O)[C@@H](C)O)[C@@H](C)CC)C(=O)N[C@@H](CC(N)=O)C(=O)N[C@@H](Cc1c[nH]c2ccccc12)C(=O)N[C@@H](CC(C)C)C(=O)N[C@@H](CC(C)C)C(=O)N[C@@H](C)C(=O)NCC(=O)NCC(=O)N1CCC[C@H]1C(=O)N[C@@H](CO)C(=O)N[C@@H](CO)C(=O)NCC(=O)N[C@@H](C)C(=O)N1CCC[C@H]1C(=O)N1CCC[C@H]1C(=O)N1CCC[C@H]1C(=O)N[C@@H](CO)C(=O)O [Compound No. 25] (H-Y[Aib]EGTFTSDYSILLEK([εLys-εLys-γGlu-C18 diacid])QAAEEFINWLLAGGPSSGAPPPS-OH)	15.2 kg·h/L
